#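 Growth conditions: 96-well plates. Treatment: test compound, 48 hours, 5 concentrations. Analysis: linear interpolation between bracketing concentrations; unreached endpoints set to highest concentration. At the GI50, growth is halved.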 The source made the active and inactive calls. Rule as the data show it: active = GI50 up to about 1.1 µM and inactive = higher.
# How the values were obtained:
# Test in all cases: DTP human tumour cell line panel, 48 h
# HL-60 = test system: HL-60
# SNB-19 = test system: SNB-19
# OVCAR-4 = test system: OVCAR-4
# U-251 = test system: U-251
# MCF7 = test system: MCF7
# MDA-MB-435 = test system: MDA-MB-435
# UACC-62 = test system: UACC-62
# RPMI-8226 = test system: RPMI-8226
# K562 = test system: K562
# RXF 393 = test system: RXF 393
# A549 = test system: A549
# SF-268 = test system: SF-268
# LOX IMVI = test system: LOX IMVI
# KM12 = test system: KM12
# HOP-62 = test system: HOP-62
# COLO 205 = test system: COLO 205
# HCC 2998 = test system: HCC 2998
# NCI-H522 = test system: NCI-H522
# HCT-116 = test system: HCT-116
# SK-MEL-5 = test system: SK-MEL-5
# NCI/ADR-RES = test system: NCI/ADR-RES
# UACC-257 = test system: UACC-257
# SR = test system: SR
# A498 = test system: A498
# IGROV-1 = test system: IGROV-1
# Malme-3M = test system: Malme-3M
# PC-3 = test system: PC-3
# SK-MEL-2 = test system: SK-MEL-2
# SN12C = test system: SN12C
# HCT-15 = test system: HCT-15
# NCI-H23 = test system: NCI-H23
# ACHN = test system: ACHN
# SNB-75 = test system: SNB-75
# OVCAR-8 = test system: OVCAR-8
# SF-295 = test system: SF-295
# SK-OV-3 = test system: SK-OV-3
# OVCAR-5 = test system: OVCAR-5
# M14 = test system: M14
# SK-MEL-28 = test system: SK-MEL-28
# NCI-H460 = test system: NCI-H460
# MDA-MB-231 = test system: MDA-MB-231
# HT-29 = test system: HT-29
# SW-620 = test system: SW-620
# HOP-92 = test system: HOP-92
# 786-0 = test system: 786-0
# TK-10 = test system: TK-10
# NCI-H226 = test system: NCI-H226
# UO-31 = test system: UO-31
# BT-549 = test system: BT-549
# MDA-N = test system: MDA-N
# DU-145 = test system: DU-145
# EKVX = test system: EKVX
# CCRF-CEM = test system: CCRF-CEM
# Hs-578T = test system: Hs-578T
# CAKI-1 = test system: CAKI-1
# MOLT-4 = test system: MOLT-4
# OVCAR-3 = test system: OVCAR-3
# T47D = test system: T47D
# SF-539 = test system: SF-539
structure (smiles),measurement,setting,value
Cc1cn([C@@H]2C[C@](C)(CO)N(C)O2)c(=O)[nH]c1=O,GI50,HL-60,> 100 µM (inactive)
same,GI50,SNB-19,> 100 µM (inactive)
same,GI50,OVCAR-4,> 100 µM (inactive)
same,GI50,U-251,> 100 µM (inactive)
same,GI50,MCF7,> 100 µM (inactive)
same,GI50,MDA-MB-435,> 100 µM (inactive)
same,GI50,UACC-62,> 100 µM (inactive)
same,GI50,RPMI-8226,> 100 µM (inactive)
same,GI50,K562,> 100 µM (inactive)
same,GI50,RXF 393,> 100 µM (inactive)
same,GI50,A549,> 100 µM (inactive)
same,GI50,SF-268,> 100 µM (inactive)
same,GI50,LOX IMVI,> 100 µM (inactive)
same,GI50,KM12,> 100 µM (inactive)
same,GI50,HOP-62,> 100 µM (inactive)
same,GI50,COLO 205,> 100 µM (inactive)
same,GI50,HCC 2998,> 100 µM (inactive)
same,GI50,NCI-H522,> 100 µM (inactive)
same,GI50,HCT-116,> 100 µM (inactive)
same,GI50,SK-MEL-5,> 100 µM (inactive)
same,GI50,NCI/ADR-RES,> 100 µM (inactive)
same,GI50,UACC-257,> 100 µM (inactive)
same,GI50,SR,> 100 µM (inactive)
same,GI50,A498,> 100 µM (inactive)
same,GI50,IGROV-1,> 100 µM (inactive)
same,GI50,Malme-3M,> 100 µM (inactive)
same,GI50,PC-3,> 100 µM (inactive)
same,GI50,SK-MEL-2,> 100 µM (inactive)
same,GI50,SN12C,> 100 µM (inactive)
same,GI50,HCT-15,> 100 µM
same,GI50,NCI-H23,> 100 µM (inactive)
same,GI50,ACHN,> 100 µM (inactive)
same,GI50,SNB-75,8.53 µM (inactive)
same,GI50,OVCAR-8,> 100 µM (inactive)
same,GI50,SF-295,> 100 µM (inactive)
same,GI50,SK-OV-3,> 100 µM (inactive)
same,GI50,OVCAR-5,> 100 µM (inactive)
same,GI50,M14,> 100 µM (inactive)
same,GI50,SK-MEL-28,> 100 µM (inactive)
same,GI50,NCI-H460,> 100 µM (inactive)
same,GI50,MDA-MB-231,> 100 µM (inactive)
same,GI50,HT-29,> 100 µM (inactive)
same,GI50,SW-620,> 100 µM (inactive)
same,GI50,HOP-92,> 100 µM (inactive)
same,GI50,786-0,> 100 µM (inactive)
same,GI50,TK-10,> 100 µM (inactive)
same,GI50,NCI-H226,> 100 µM (inactive)
same,GI50,UO-31,> 100 µM (inactive)
same,GI50,BT-549,> 100 µM (inactive)
same,GI50,MDA-N,> 100 µM (inactive)
same,GI50,DU-145,> 100 µM (inactive)
same,GI50,EKVX,> 100 µM (inactive)
same,GI50,CCRF-CEM,> 100 µM (inactive)
same,GI50,Hs-578T,> 100 µM (inactive)
same,GI50,CAKI-1,> 100 µM (inactive)
COc1ccc(-c2cc(-c3cc(F)c(Cl)cc3Cl)[nH]n2)cc1OC,GI50,HL-60,15.6 µM (inactive)
same,GI50,SNB-19,49.4 µM (inactive)
same,GI50,OVCAR-4,32.4 µM (inactive)
same,GI50,U-251,26.9 µM (inactive)
same,GI50,MDA-MB-435,46.2 µM (inactive)
same,GI50,RPMI-8226,17.3 µM (inactive)
same,GI50,K562,46 µM (inactive)
same,GI50,RXF 393,15.1 µM (inactive)
same,GI50,A549,40.7 µM (inactive)
same,GI50,SF-268,29.2 µM (inactive)
same,GI50,LOX IMVI,18.4 µM (inactive)
same,GI50,KM12,26.4 µM (inactive)
same,GI50,HOP-62,39.9 µM (inactive)
same,GI50,COLO 205,19.2 µM (inactive)
same,GI50,MOLT-4,14.5 µM (inactive)
same,GI50,NCI-H522,20.2 µM (inactive)
same,GI50,HCT-116,25.7 µM (inactive)
same,GI50,SK-MEL-5,17.1 µM (inactive)
same,GI50,NCI/ADR-RES,25.1 µM (inactive)
same,GI50,UACC-257,32.7 µM (inactive)
same,GI50,SR,11.1 µM (inactive)
same,GI50,IGROV-1,19.2 µM (inactive)
same,GI50,Malme-3M,30.4 µM (inactive)
same,GI50,PC-3,21.2 µM (inactive)
same,GI50,SK-MEL-2,79.6 µM (inactive)
same,GI50,SN12C,22.7 µM (inactive)
same,GI50,HCT-15,21.2 µM
same,GI50,NCI-H23,30 µM (inactive)
same,GI50,ACHN,7.76 µM (inactive)
same,GI50,SNB-75,23.3 µM (inactive)
same,GI50,OVCAR-8,34.4 µM (inactive)
same,GI50,SF-295,18.3 µM (inactive)
same,GI50,SK-OV-3,31.9 µM (inactive)
same,GI50,OVCAR-5,> 100 µM (inactive)
same,GI50,M14,75 µM (inactive)
same,GI50,SK-MEL-28,48.6 µM (inactive)
same,GI50,OVCAR-3,15.2 µM (inactive)
same,GI50,NCI-H460,32.1 µM (inactive)
same,GI50,MDA-MB-231,30.4 µM (inactive)
same,GI50,HT-29,22.1 µM (inactive)
same,GI50,SW-620,29.6 µM (inactive)
same,GI50,HOP-92,20.6 µM (inactive)
same,GI50,786-0,19.6 µM (inactive)
same,GI50,TK-10,43.4 µM (inactive)
same,GI50,NCI-H226,20.8 µM (inactive)
same,GI50,UO-31,85.3 µM (inactive)
same,GI50,BT-549,30.2 µM (inactive)
same,GI50,T47D,28.6 µM (inactive)
same,GI50,MDA-N,52.8 µM (inactive)
same,GI50,DU-145,33.1 µM (inactive)
same,GI50,EKVX,22.2 µM (inactive)
same,GI50,CCRF-CEM,11.6 µM (inactive)
same,GI50,SF-539,15.9 µM (inactive)
same,GI50,Hs-578T,43.7 µM (inactive)
same,GI50,CAKI-1,50.8 µM (inactive)

# Source: ChEMBL document CHEMBL1201862, “PubChem BioAssay data set” (2004)
